# Where two headings read alike, the source gives them in different places.
# Legend:
# USP30 = USP30 (Homo sapiens (Human), UniProt Q70CQ3); test: Dundee MALDI-TOF mass spectrometry assay (K48-linked diubiquitin cleavage); assay type: biochemical; conditions: USP30 25 ng/μl, K48-linked diubiquitin 5.6 μM
# Procedure: USP30 was diluted in a buffer containing 40 mM Tris, 0.01% BSA, 1 mM DTT and K48 in 40 mM Tris, 0.01% BSA.
# The compounds were pre-incubated with the USP30 for 5 mins at room temp before the K48 dimer addition. The assay mixture was then incubated for 45 mins at room temp. The assay was stopped by the addition of TFA to a final concentration of 2% (v/v).
# Acidified samples of the DUB assays were mixed with 0.5 mM 15N-ubiquitin and then with one part of 2% (v/v) TFA and one part of 2.5 DHAP matrix solution (7.6 mg of 2.5 DHAP in […] ethanol and […] of an aqueous 12 mg ml 1 diammonium hydrogen citrate).
# [1] = biological target: recombinant USP30 (amino acids 57-517 of the human sequence) (Homo sapiens (Human), UniProt Q70CQ3); test: In vitro USP30 biochemical assay (Ubiquitin-Rhodamine substrate); conditions: fluorescence
# Procedure: In vitro biochemical assay to establish the potency of compounds for USP30 inhibition: a 384-well plate assay using a fluorophore tagged substrate of USP30 was used for in vitro screening of compounds. Each compound was tested at
# 10 different concentrations (0.5 to 10,000 nM) in duplicate wells. […] Data were analyzed using Graph Pad Prism software with a four-parameter (floating slope) fit to log concentration data to determine IC50s.
# [2] = 1.5 nM recombinant USP30, 25 nM Ubiquitin-Rhodamine
# [3] = […] recombinant USP30, 25 nM Ubiquitin-Rhodamine
# USP30, sequence (Q70CQ3 whole entry): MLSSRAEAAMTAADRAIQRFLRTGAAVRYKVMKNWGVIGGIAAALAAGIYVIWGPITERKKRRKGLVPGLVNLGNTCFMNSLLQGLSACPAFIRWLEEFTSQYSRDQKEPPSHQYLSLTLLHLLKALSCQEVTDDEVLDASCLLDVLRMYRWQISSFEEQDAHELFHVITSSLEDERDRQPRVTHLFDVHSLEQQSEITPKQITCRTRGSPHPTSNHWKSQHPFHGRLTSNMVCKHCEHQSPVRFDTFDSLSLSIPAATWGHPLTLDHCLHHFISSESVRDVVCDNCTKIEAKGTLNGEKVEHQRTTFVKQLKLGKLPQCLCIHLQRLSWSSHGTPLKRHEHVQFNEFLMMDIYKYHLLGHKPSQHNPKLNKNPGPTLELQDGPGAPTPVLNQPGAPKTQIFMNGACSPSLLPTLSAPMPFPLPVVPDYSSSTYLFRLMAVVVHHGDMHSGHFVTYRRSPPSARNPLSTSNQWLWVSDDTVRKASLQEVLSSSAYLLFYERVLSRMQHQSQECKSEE
# recombinant USP30 (amino acids 57-517 of the human sequence), sequence (Q70CQ3 57-517): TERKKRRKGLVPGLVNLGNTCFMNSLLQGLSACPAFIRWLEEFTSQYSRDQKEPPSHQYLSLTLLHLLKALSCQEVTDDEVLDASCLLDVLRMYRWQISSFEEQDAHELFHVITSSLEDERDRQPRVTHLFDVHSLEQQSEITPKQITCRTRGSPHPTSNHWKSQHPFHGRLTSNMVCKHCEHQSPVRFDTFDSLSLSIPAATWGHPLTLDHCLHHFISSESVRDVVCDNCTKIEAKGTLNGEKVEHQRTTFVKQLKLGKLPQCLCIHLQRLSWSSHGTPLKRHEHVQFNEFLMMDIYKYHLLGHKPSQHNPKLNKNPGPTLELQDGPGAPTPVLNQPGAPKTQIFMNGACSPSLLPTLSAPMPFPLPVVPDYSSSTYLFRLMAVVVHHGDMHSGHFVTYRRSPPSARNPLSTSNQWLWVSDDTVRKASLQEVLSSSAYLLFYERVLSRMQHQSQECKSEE
Compound,IC50 (USP30; read-out: IC50),"IC50 [1, 2]","IC50 [1, 3]",IC50 (USP30; read-out: USP30 IC50 μM (avg))
COCCC(C)(C)NS(=O)(=O)c1ccc(NC(=O)[C@H](Cc2ccccc2)NC(=O)c2ccc(F)cc2)cc1C(F)(F)F [Compound I-65],< 0.05 µM,0.05 to 1 µM,–,–
"CCNS(=O)(=O)c1ccc(NC(=O)[C@H](Cc2ccccc2)NC(=O)c2ccc(F)cc2)cc1O [Compound I-67, (S)—N-(1-(4-(N-ethylsulfamoyl)-3-hydroxyphenylamino)-1-oxo-3-phenylpropan-2-yl)-4-fluorobenzamide]",< 0.05 µM,0.05 to 1 µM,–,–
O=C(N[C@@H](Cc1ccccc1)C(=O)Nc1ccc(S(=O)(=O)NC2COC2)c(C(F)(F)F)c1)c1ccc(F)cc1 [Compound I-68],< 0.05 µM,0.05 to 1 µM,–,–
O=C(N[C@@H](Cc1ccccc1)C(=O)Nc1ccc(S(=O)(=O)NC23CC(C2)C3)c(C(F)(F)F)c1)c1ccc(F)cc1 [Compound I-69],< 0.05 µM,0.05 to 1 µM,–,–
"CC(C)(C)NS(=O)(=O)c1ccc(NC(=O)[C@H](Cc2ccccc2)NC(=O)c2ccc(F)cc2)cc1C(F)(F)F [Compound I-70, (S)—N-(1-(4-(N-tert-butylsulfamoyl)-3-(trifluoromethyl)phenylamino)-1-oxo-3-phenylpropan-2-yl)-4-fluorobenzamide]",< 0.05 µM,–,< 0.05 µM,–
CC(C)C[C@H](NC(=O)c1ccc(F)cc1)C(=O)Nc1ccc(S(=O)(=O)N[C@@H]2CCOC2)cc1 [Compound I-71],–,0.05 to 1 µM,–,< 0.05 µM
CC(C)(CO)NS(=O)(=O)c1ccc(NC(=O)C(CC2CCNCC2)NC(=O)c2ccc(F)cc2)cc1 (stereo not shown) [Compound I-72],–,0.05 to 1 µM,–,0.05 to 1 µM
COc1cc(NC(=O)[C@H](CC2CCOCC2)NC(=O)c2ccc(F)cc2)cnc1S(=O)(=O)NC1CCCC1 [Compound I-82],–,0.05 to 1 µM,–,< 0.05 µM
COc1cc(NC(=O)[C@H](CC2CCN(C)CC2)NC(=O)c2ccc(F)cc2)ccc1S(=O)(=O)NC(C)(C)C [Compound I-84],–,0.05 to 1 µM,–,< 0.05 µM
COc1cc(NC(=O)[C@H](CC2CCOCC2)NC(=O)c2ccc(F)cc2)ccc1S(=O)(=O)NC(C)(C)CO [Compound I-85],–,0.05 to 1 µM,–,0.05 to 1 µM
COc1cc(NC(=O)[C@H](CC2CCOCC2)NC(=O)c2ccc(F)cc2)ccc1S(=O)(=O)NC1CCC1 [Compound I-86],–,–,< 0.05 µM,< 0.05 µM
COc1cc(NC(=O)[C@H](CC2CCOCC2)NC(=O)c2ccc(F)cc2)ccc1S(=O)(=O)NC1CCCC1 [Compound I-87],–,–,< 0.05 µM,< 0.05 µM
O=C(N[C@@H](CC1CCOCC1)C(=O)Nc1ccc(S(=O)(=O)NC2CCC2)nc1)c1ccc(F)cc1 [Compound I-91],–,0.05 to 1 µM,–,< 0.05 µM
COc1cc(NC(=O)[C@H](CC2CCN(C)CC2)NC(=O)c2ccc(F)cc2)ccc1S(=O)(=O)NC(C)(C)CO [Compound I-93],–,0.05 to 1 µM,–,0.05 to 1 µM
O=C(N[C@@H](CC1CCOCC1)C(=O)Nc1ccc(S(=O)(=O)NC2CCCC2)nc1)c1ccc(F)cc1 [Compound I-97],–,–,< 0.05 µM,< 0.05 µM
CN1CCC(C[C@H](NC(=O)c2ccc(F)cc2)C(=O)Nc2ccc(S(=O)(=O)NC3COC3)cc2)CC1 [Compound I-99],–,0.05 to 1 µM,–,0.05 to 1 µM
CC(=O)N1CCC(CC(NC(=O)c2ccc(F)cc2)C(=O)Nc2ccc(S(=O)(=O)NC(C)(C)C)cc2)CC1 (stereo not shown) [Compound I-101],–,–,< 0.05 µM,< 0.05 µM
CN1CCC(C[C@H](NC(=O)c2ccc(F)cc2)C(=O)Nc2ccc(S(=O)(=O)N[C@@H]3CCOC3)cc2)CC1 [Compound I-103],–,0.05 to 1 µM,–,0.05 to 1 µM
CN1CCC(C[C@H](NC(=O)c2ccc(F)cc2)C(=O)Nc2ccc(S(=O)(=O)N[C@@H]3CCOC3)nc2)CC1 [Compound I-105],–,0.05 to 1 µM,–,0.05 to 1 µM
CN1CCC(C[C@H](NC(=O)c2ccc(F)cc2)C(=O)Nc2ccc(S(=O)(=O)NC(C)(C)CO)nc2)CC1 [Compound I-106],–,0.05 to 1 µM,–,0.05 to 1 µM
CC(C)N1CCC(C[C@H](NC(=O)c2ccc(F)cc2)C(=O)Nc2ccc(S(=O)(=O)NC(C)(C)C)cc2)CC1 [Compound I-117],–,–,–,< 0.05 µM
CC(C)(CO)NS(=O)(=O)c1ccc(NC(=O)[C@@H]2C[C@@H](c3ccccc3)CN2C(=O)c2ccc(F)cc2)cc1 [Compound I-262],–,1 to 10 µM,–,–
O=C(Nc1ccc(S(=O)(=O)NC2COC2)cc1)[C@@H]1C[C@@H](c2ccccc2)CN1C(=O)c1ccc(F)cc1 [Compound I-263],–,1 to 10 µM,–,–
CC(C)(C)NS(=O)(=O)c1ccc(NC(=O)[C@@H]2C[C@@H](O)CN2C(=O)c2ccc(F)cc2)cc1 [Compound I-264],–,–,> 10 µM,–

Compound,IC50 (USP30; read-out: IC50),"IC50 [1, 2]","IC50 [1, 3]",IC50 (USP30; read-out: USP30 IC50 μM (avg))
COc1cc(NC(=O)[C@@H]2C[C@@H](c3ccccc3)CN2C(=O)c2ccc(F)cc2)ccc1S(=O)(=O)NC1COC1 [Compound I-265],–,0.05 to 1 µM,–,–
CO[C@@H]1C[C@@H](C(=O)Nc2ccc(S(=O)(=O)NC(C)(C)C)cc2)N(C(=O)c2ccc(F)cc2)C1 [Compound I-267],–,1 to 10 µM,–,–
CO[C@@H]1C[C@@H](C(=O)Nc2ccc(S(=O)(=O)NC(C)(C)CO)cc2)N(C(=O)c2ccc(F)cc2)C1 [Compound I-268],–,–,> 10 µM,–
O=C(Nc1ccc(S(=O)(=O)N[C@@H]2CCOC2)nc1)[C@@H]1C[C@@H](c2ccccc2)CN1C(=O)c1ccc(F)cc1 [Compound I-270],–,1 to 10 µM,–,–
O=C(Nc1ccc(S(=O)(=O)NC2COC2)nc1)[C@@H]1C[C@@H](c2ccccc2)CN1C(=O)c1ccc(F)cc1 [Compound I-271],–,1 to 10 µM,–,–
CC(C)(CO)NS(=O)(=O)c1ccc(NC(=O)[C@@H]2C[C@@H](O)CN2C(=O)c2ccc(F)cc2)cc1 [Compound I-275],–,–,> 10 µM,–
O=C(Nc1ccc(S(=O)(=O)NC2COC2)cc1)[C@@H]1C[C@@H](O)CN1C(=O)c1ccc(F)cc1 [Compound I-276],–,–,> 10 µM,–
CO[C@@H]1C[C@@H](C(=O)Nc2ccc(S(=O)(=O)N[C@@H]3CCOC3)cc2)N(C(=O)c2ccc(F)cc2)C1 [Compound I-277],–,0.05 to 1 µM,–,–
CO[C@@H]1C[C@@H](C(=O)Nc2ccc(S(=O)(=O)NC3COC3)cc2)N(C(=O)c2ccc(F)cc2)C1 [Compound I-278],–,–,> 10 µM,–
CC(C)(C)NS(=O)(=O)c1ccc(NC(=O)[C@@H]2C[C@H](O)CN2C(=O)c2ccc(F)cc2)cc1 [Compound I-279],–,1 to 10 µM,–,–
CC(C)(CO)NS(=O)(=O)c1ccc(NC(=O)[C@@H]2C[C@H](O)CN2C(=O)c2ccc(F)cc2)cc1 [Compound I-280],–,–,> 10 µM,–
O=C(Nc1ccc(S(=O)(=O)NC2COC2)cc1)[C@@H]1C[C@H](O)CN1C(=O)c1ccc(F)cc1 [Compound I-281],–,–,> 10 µM,–
O=C(Nc1ccc(S(=O)(=O)N[C@@H]2CCOC2)cc1)[C@@H]1C[C@H](O)CN1C(=O)c1ccc(F)cc1 [Compound I-282],–,–,> 10 µM,–
CC(C)(C)NS(=O)(=O)c1ccc(NC(=O)[C@@H]2C[C@H](c3ccccc3)CN2C(=O)c2ccc(F)cc2)cc1 [Compound I-283],–,0.05 to 1 µM,–,–
CC(=O)O[C@H]1C[C@@H](C(=O)Nc2ccc(S(=O)(=O)N[C@@H]3CCOC3)cc2)N(C(=O)c2ccc(F)cc2)C1 [Compound I-284],–,–,> 10 µM,–
CC(=O)O[C@H]1C[C@@H](C(=O)Nc2ccc(S(=O)(=O)NC(C)(C)C)cc2)N(C(=O)c2ccc(F)cc2)C1 [Compound I-285],–,1 to 10 µM,–,–
CC(=O)O[C@@H]1C[C@@H](C(=O)Nc2ccc(S(=O)(=O)N[C@@H]3CCOC3)cc2)N(C(=O)c2ccc(F)cc2)C1 [Compound I-286],–,1 to 10 µM,–,–
CC(C)N1CCC(C[C@H](NC(=O)c2ccc(F)cc2)C(=O)Nc2ccc(S(=O)(=O)NC(C)(C)C)cc2)CC1 [Compound I-287],–,–,< 0.05 µM,–
CO[C@H]1C[C@@H](C(=O)Nc2ccc(S(=O)(=O)N[C@@H]3CCOC3)cc2)N(C(=O)c2ccc(F)cc2)C1 [Compound I-288],–,–,> 10 µM,–
CO[C@H]1C[C@@H](C(=O)Nc2ccc(S(=O)(=O)NC3COC3)cc2)N(C(=O)c2ccc(F)cc2)C1 [Compound I-289],–,–,> 10 µM,–
CO[C@H]1C[C@@H](C(=O)Nc2ccc(S(=O)(=O)NC(C)(C)C)cc2)N(C(=O)c2ccc(F)cc2)C1 [Compound I-290],–,1 to 10 µM,–,–
CO[C@H]1C[C@@H](C(=O)Nc2ccc(S(=O)(=O)NC(C)(C)CO)cc2)N(C(=O)c2ccc(F)cc2)C1 [Compound I-291],–,–,> 10 µM,–
CC(C)(C)NS(=O)(=O)c1ccc(NC(=O)C2CC(C3CCCCC3)CN2C(=O)c2ccc(F)cc2)cc1 (stereo not shown) [Compound I-292],–,0.05 to 1 µM,–,–

# Reference: patent US20250162989A1, “USP30 INHIBITORS AND USES THEREOF” (Vincere Biosciences, Inc., priority 2021, published 2025)
